Measured values from PubChem BioAssay (NCI).
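The compound was tested at five concentrations on cells cultured in 96-well plates, with a 48-hour exposure period. Abbreviation: GI50, concentration required for 50% inhibition of growth. TGI denotes the concentration required for complete inhibition of growth.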

Experiments:
Assay in all cases: growth of human tumour cells (NCI), 48 h
A549 NSCLC = system: A549 NSCLC
LOX IMVI melanoma = system: LOX IMVI melanoma
NCI-H226 lung = system: NCI-H226 lung
NCI-H23 lung = system: NCI-H23 lung
NCI-H522 lung = system: NCI-H522 lung
SK-OV-3 ovarian = system: SK-OV-3 ovarian
SNB-75 CNS = system: SNB-75 CNS
BT-549 breast = system: BT-549 breast
SK-MEL-5 melanoma = system: SK-MEL-5 melanoma
SF-539 CNS = system: SF-539 CNS

SMILES	TGI (A549 NSCLC) [µM]	TGI (LOX IMVI melanoma) [µM]	TGI (NCI-H226 lung) [µM]	TGI (NCI-H23 lung) [µM]	TGI (NCI-H522 lung) [µM]	TGI (SK-OV-3 ovarian) [µM]	TGI (SNB-75 CNS) [µM]	GI50 (BT-549 breast) [µM]	TGI (BT-549 breast) [µM]	GI50 (NCI-H226 lung) [µM]	GI50 (SK-MEL-5 melanoma) [µM]	TGI (SK-MEL-5 melanoma) [µM]	GI50 (SNB-75 CNS) [µM]	TGI (SF-539 CNS) [µM]	GI50 (A549 NSCLC) [µM]	GI50 (LOX IMVI melanoma) [µM]	GI50 (SF-539 CNS) [µM]	GI50 (SK-OV-3 ovarian) [µM]	GI50 (NCI-H23 lung) [µM]	GI50 (NCI-H522 lung) [µM]
COC(=O)C(C(=O)C(=O)Nc1nc(=S)[nH][nH]1)c1csc(-n2nc(-c3ccccc3)cc2-c2ccccc2)n1 (stereo not drawn)	> 100	> 100	> 100	> 100	> 100	> 100	78.5													
C=C(C)[C@@H]1CC[C@]2(C(=O)O)CC[C@]3(C)[C@H](CC[C@@H]4[C@@]5(C)C[C@@H](CC#Cc6ccc(C(F)(F)F)cc6)[C@H](O)C(C)(C)[C@@H]5CC[C@]43C)[C@@H]12			> 100				5.14	10.9	> 100	2.91	8.97	> 100	1.73							
CC[P+](C)(C)c1ccccc1	> 100	> 100		> 100		> 100	> 100					> 100		> 100						
CC1C[C@H](C)CC(C(O)CC2CC(=O)N(Cc3ccccc3)C(=O)C2)C1O (stereo partly drawn)	> 100	> 100	> 100	> 100	> 100	> 100	> 100							> 100						
CC1(C)C(O)C[C@@H](O)[C@@]2(C)C1CC[C@]1(C)C2C[C@@H](O)[C@@H]2C([C@@]3(C)CC[C@@H](C(C)(C)O)O3)CCC21C (stereo partly drawn)	37	23.2	34.7	35.3	27.8	33.5	29.7					22.6		27.5						
CC(/C(=N\Nc1ccccc1)c1ccc(O)cc1)C1C(=O)Oc2ccccc21 (stereo not drawn)	> 100	> 100					> 100					> 100		> 100						
CNCc1cc(OC)ccc1-c1ccc(OC)c(OC)c1OC	> 100	> 100	> 100	> 100	> 100	> 100	> 96.7					> 100		> 100						
COc1cc(OC)c(/C=C\c2ccnc3ccccc23)c(OC)c1	18.6	13.6	16.8	22.1	18	20.5						5.88		12.4						
O=C1c2nsnc2C(=O)c2c(F)c(F)c(F)c(F)c21	4.85	1.83	4.58			3.7	2.21	1.49	2.83	1.93	1.24	2.52	1.02	3.14	2.15	0.494	1.7	2.04		
Clc1ccc2c(c1)N(CCCN1CCCC1)c1ccccc1S2	24.5	7.14	48.3	24	7.11	19	16.4	11.8	24.4	19.4	1.83	3.32	3.4		11	2.5		6.22	10.2	2.23
CC1CC(=O)Nc2ccccc2N1C(=O)CN1CCC(CCCCN(C)C)CC1 (stereo not drawn)	> 100	> 100	> 100	> 100	> 100		> 100					> 100		> 100						
O=C1CCC2CC(C(=O)c3ccccc3)CCC2CN1 (stereo not drawn) (tested in a mixture with another compound)	> 100		> 100	> 100	> 100	> 100	> 100					> 100		> 100						
CCOC(=O)CSC(=O)NCCCl	> 100		> 100	> 100	> 100	> 100	> 100							> 100						
CC1SC2=NC3=C(c4ccccc4C3=O)C(c3ccc(Cl)cc3)N2C1=O (stereo not drawn)	> 100		> 100	> 100	87.8	> 100	> 100					> 100								
CCCCCCCCCCCCCC(=O)OCC1OC(n2cc(F)c(=O)[nH]c2=O)C(NC(=O)OCc2ccccc2)C(OC(=O)CCCCCCCCCCCCC)C1O (stereo not drawn)	> 100	> 100	> 100	> 100	> 100	> 100	> 100					> 100		> 100						
CC1=NOC(=O)/C1=C/c1cccc2ccccc12	> 100	> 100	> 100	> 100	> 100	> 100	> 100					> 100		> 100						
Cc1ccc(S(=O)(=O)N2CCSCCN(S(=O)(=O)c3ccc(C)cc3)CCN(S(=O)(=O)c3ccc(C)cc3)CC2)cc1	> 100		> 100	> 100		86.7			70.5			> 100		56.8						
CC(=O)Nc1cc(N(CCOS(C)(=O)=O)CCOS(C)(=O)=O)ccc1N=O	> 100		> 100	> 100	> 100		> 100					> 100		> 100						
COC(=O)/C(=N\Nc1nc(=S)[nH]n1N)C(C#N)c1ccccc1 (stereo not drawn)	> 100	> 100	> 100	> 100	> 100	> 100	> 100					> 100								
COc1ccc(C2CC(c3cc(C)ccc3O)=NC(N)=N2)cc1 (stereo not drawn)	> 100	> 100	> 100	> 100	> 100	> 100	> 100							> 100						
NC(N)=N/N=C/c1c(-c2cc(Cl)sc2Cl)nc2sccn12	11.3		18.9	14.9	> 50			1.14	2.55	7.89	0.729	1.56		1.72	2.17		0.969		7.5	1.76
COc1ccc2c(CN3CCC(C(=O)O)CC3)cc3cc4c(cc3c2c1)OCO4	4.34	9.37	4.64	8.9			9.03	4.03	17.6	2.03	1.62	3.14	2.41	14	1.77	1.9	3.38		2.53	
